Entries after “also recorded” stand apart in the source; their conditions may differ. Read-outs that look alike come from different tables or passages of the source.
Legend:
[1] = system: MCF7 cells; test: Inhibition of breast cell proliferation, SRB assay, 48 hour incubation; assay type: cell-based, human; settings: for inhibition at 100 µM: Homo sapiens
Method: MCF7 cells were treated with compounds or vehicle (DMSO). […] Percent inhibition of growth at 100 μM was determined and GI50 values were calculated from log-dose response curves as previously described ([…] et al., Cancer Res., 2003, 63:3211-3220).

[2] = system: human breast cancer cell lines; test: NCI anti-tumor screen, breast cancer cell line panel as a whole; assay type: cell-based; settings: for selectivity among breast cancer cell lines: comparison of GI50 values across cell lines; for growth inhibition of human breast tumor cells, in words: estrogen-positive and negative breast cancer cell lines
Method: (§1) Compounds were tested at the National Cancer Institute's Developmental Therapeutics Program, in duplicate, against 60 human tumor cell lines at a minimum of five concentrations at 10-fold dilutions: A 48 hour continuous drug exposure protocol was used, and a sulforhodamine B (SRB) protein assay was used to estimate cell viability or growth.
(§2) Upon completion of the synthesis, the thiazole compounds 17-24 and 27-30 were submitted to the NCI's antitumor screen (see Monks et al., J. Natl. Cancer Inst., 1991, 83:757b 766; Bray and Wickstrom, Biotechniques, 1996, 21:5:780-782) and the results against human breast cancer cell lines are shown in Table 2 as GI50 values.

[3] = system: 60 human tumor cell lines; test: NCI anti-tumor screen, all NCI cell lines; assay type: cell-based; settings: NCI cell lines other than breast (FIG. 3)
Method: FIG. 3 is a graphic representation of a GI50 comparison for compound 17 (4-[4′-(4-Chlorophenoxy)-phenyl]-thiazol-2-yl ammonium iodide) for all NCI cell lines. The ordinate represents growth inhibitor activity and the abscissa indicates the type of tumor as well as each cell line treated with compound 17. L=leukemia; NSCLC Non-small cell lung cancer; C=Colon; CNS=central nervous system; M=Melanoma; O=Ovarian; R=Renal; P=Prostate; B=Breast.
as §1

[4] = system: BT-549; test: NCI anti-tumor screen, SRB assay, 48 hour exposure; assay type: cell-based, human; settings: BT-549 breast cancer cell line
Method: as §1, §2

[5] = system: MDA-MB-231/ATCC; test: NCI anti-tumor screen, SRB assay, 48 hour exposure; assay type: cell-based, human; settings: MDA-MB-231/ATCC breast cancer cell line
Method: as §1, §2

[6] = system: MDA-MB-435; test: NCI anti-tumor screen, SRB assay, 48 hour exposure; assay type: cell-based, human; settings: estrogen-negative cell line MDA-MB-435
Method: as §1, §2

[7] = system: HS 578T; test: NCI anti-tumor screen, SRB assay, 48 hour exposure; assay type: cell-based, human; settings: estrogen-negative HS 578T cell line
Method: as §1, §2

[8] = system: NCI/ADR-RES; test: NCI anti-tumor screen, SRB assay, 48 hour exposure; assay type: cell-based, human; settings: adriamycin-resistant cell line
Method: as §1, §2

[9] = system: T-47D; test: NCI anti-tumor screen, SRB assay, 48 hour exposure; assay type: cell-based, human; settings: estrogen-positive cell line T-47D
Method: as §1, §2

[10] = system: MCF7; test: NCI anti-tumor screen, SRB assay, 48 hour exposure; assay type: cell-based, human; settings: MCF7 breast cancer cell line
Method: as §1, §2

Row | melting point | Structure (SMILES) | inhibition at 100 µM [1] | GI50 ([4]; Homo sapiens) | GI50 ([5]; Homo sapiens) | GI50 ([6]; Homo sapiens) | GI50 ([7]; Homo sapiens) | GI50 ([8]; Homo sapiens, NCI/ADR-RES) | GI50 ([9]; Homo sapiens, T47D) | GI50 ([10]; Homo sapiens) | selectivity among breast cancer cell lines [2] | % Inhibition of MCF7 cells at 100 μM [1] | other results
1 |  | Nc1nc(-c2ccc(Oc3ccccc3)cc2)cs1 [Compound 16, 4-(4′-Phenoxyphenyl)-thiazol-2-yl ammonium iodide] | 81% |  |  |  |  |  |  |  |  |  | 
2 |  | I.Nc1nc(-c2ccc(Oc3ccc(Cl)cc3)cc2)cs1 [Compound 17, 4-[4′-(4-Chlorophenoxy)-phenyl]-thiazol-2-yl ammonium iodide] | 85% | > 100 µM | > 100 µM | > 100 µM | > 100 µM | > 100 µM | 0.917 µM | > 100 µM |  |  | GI50 ([2]; Homo sapiens, T47D, all breast cancer cell lines except T-47D, read-out: GI50 in all cell lines except T-47D): > 100 µM; activity against other types of cancer [3]: not effective against other types of cancer
3 |  | I.Nc1nc(-c2ccc(Oc3cccc(Cl)c3)cc2)cs1 [Compound 18, 4-[4-(3′-Chlorophenoxy)-phenyl]-thiazol-2-yl ammonium iodide] |  |  |  |  |  |  |  |  | active only against estrogen receptor-negative breast cancer | 100% | GI50 [4]: 14.3 µM; GI50 [5]: 4.8 µM; GI50 [6]: 2.1 µM; GI50 [7]: 19.7 µM; GI50 [8]: 13.2 µM; GI50 [9]: 14 µM; GI50 [10]: 14.6 µM
4 |  | I.Nc1nc(-c2ccc(Oc3ccccc3Cl)cc2)cs1 [Compound 19, 4-[4-(2′-Chlorophenoxy)-phenyl]-thiazol-2-yl ammonium iodide] |  |  |  |  |  |  |  |  |  | 87% | GI50 [4]: 12.8 µM; GI50 [5]: 10.5 µM; GI50 [6]: 14.8 µM; GI50 [8]: 25.8 µM; GI50 [9]: 16.4 µM; GI50 [10]: 27.4 µM
5 | 202 to 205 °C | I.Nc1nc(-c2ccc(Oc3ccc(Cl)c(Cl)c3)cc2)cs1 [Compound 20, 4-[4′-(3,4-Dichlorophenoxy)-phenyl]-thiazol-2-yl ammonium iodide] | 47% | 1.91 µM | 2.29 µM | 0.759 µM | 2 µM | 1.29 µM | 20.9 µM | 3.02 µM | selectivity for the adriamycin-resistant cell line |  | growth inhibition of human breast tumor cells, in words [2]: low micromolar growth inhibition of most human breast tumor cells; also recorded: low micromolar
6 | 204 to 207 °C | COc1ccc(Oc2ccc(-c3csc(N)n3)cc2)cc1.I [Compound 21, 4-[4′-(4-Methoxyphenoxy)-phenyl]-thiazol-2-yl ammonium iodide] | 24% |  |  |  |  |  |  |  |  |  | 
7 | 118 to 120 °C | Cc1ccc(Oc2ccc(-c3csc(N)n3)cc2)cc1.I [Compound 22, 4-[4′-(p-Toluoxy)phenyl]-thiazol-2-yl ammonium iodide] | 98% |  | 14.1 µM | 11.8 µM | 22.7 µM | 18.2 µM | 0.54 µM | 17.2 µM |  |  | 
8 | 253 to 254 °C | I.Nc1nc(-c2ccc(Oc3ccc(-c4ccccc4)cc3)cc2)cs1 [Compound 23, 4-[4′-(Biphenyl-4-yloxy)-phenyl]-thiazol-2-yl ammonium iodide] | 53% | 10.4 µM | 12.6 µM | 18.6 µM | 18.8 µM | 17.4 µM | 3.91 µM | 14.3 µM |  |  | 
9 | 137 to 140 °C | I.Nc1nc(-c2ccc(Oc3ccc(Oc4ccccc4)cc3)cc2)cs1 [Compound 24, 4-[4′-(4-Phenoxy-phenoxy)-phenyl]-thiazol-2-yl ammonium iodide] | 81% | 16.1 µM | 12.6 µM | 22.7 µM | 27.8 µM | 35.9 µM | 4.9 µM | 35.1 µM |  |  | 
10 |  | CCOC(=O)c1cccc(Oc2ccc(-c3csc(N)n3)cc2)c1.I [Compound 25, 4-[4-(3′-Ethoxycarbonyl-phenoxy)-phenyl]-thiazol-2-yl ammonium iodide] |  |  |  |  |  |  |  |  |  | 84% | 
11 | 129 to 132 °C | I.Nc1nc(-c2ccc(Sc3ccccc3)cc2)cs1 [Compound 26, 4-(4′-Phenylsulfanyl-phenyl)-thiazol-2-yl ammonium iodide] | 79% |  |  |  |  |  |  |  |  |  | 
12 |  | I.Nc1nc(-c2ccc(Sc3ccc(Cl)cc3)cc2)cs1 [Compound 27, 4-[4-(4′-Chloro-phenylsulfanyl)-phenyl]-thiazol-2-yl ammonium iodide] |  |  |  |  |  |  |  |  | active only against estrogen receptor-negative breast cancer | 89% | GI50 [4]: 15.3 µM; GI50 [5]: 12.4 µM; GI50 [6]: 1.49 µM; GI50 [7]: 18.8 µM; GI50 [8]: 17.5 µM; GI50 [9]: 24.4 µM; GI50 [10]: 21.6 µM
13 |  | I.Nc1nc(-c2ccc(Sc3ccc(Cl)c(Cl)c3)cc2)cs1 [Compound 28, 4-[4-(3′,4′-Dichloro-phenylsulfanyl)-phenyl]-thiazol-2-yl ammonium iodide] |  |  |  |  |  |  |  |  | selectivity for the adriamycin-resistant cell line | 54% | GI50 ([2]; all breast cancer cell lines except HS 578T, read-out: GI50 values in all cell lines except HS 578T): 1 to 5 µM; growth inhibition of human breast tumor cells, in words [2]: low micromolar growth inhibition of most human breast tumor cells; GI50 [4]: 5.95 µM; GI50 [5]: 3.73 µM; GI50 [6]: 1.11 µM; GI50 [8]: 3.37 µM; GI50 [9]: 2.79 µM; GI50 [10]: 5.68 µM
14 |  | COc1ccc(Sc2ccc(-c3csc(N)n3)cc2)cc1.I [Compound 29, 4-[4-(4′-Methoxy-phenylsulfanyl)-phenyl]-thiazol-2-yl ammonium iodide] |  |  |  |  |  |  |  |  |  | 11% | 
15 | 182 to 185 °C | Cc1ccc(Sc2ccc(-c3csc(N)n3)cc2)cc1.I [Compound 30, 4-(4′p-Tolylsulfanyl-phenyl)-thiazol-2-yl ammonium iodide] | 96% | 25.7 µM | > 100 µM | 1.4 µM | 59.6 µM | 64.6 µM | 68 µM | 25.9 µM | active only against estrogen receptor-negative breast cancer |  | 

Reference: patent publication US20070082934A1, “Substituted 4-aryloxy and 4-arylsulfanyl-phenyl-2-aminothiazoles as inhibitors of cell proliferation” (priority 2003, published 2007)
